Measurements from patent publication US9902725B2, “Heterocyclic derivatives as RORgamma modulators” (GENFIT, priority 2014, dated 2018).

Assays:
human RORγt [1] = biological target: T1, human RORγt (Homo sapiens, UniProt P51449); assay: RORE luciferase/RORγt transactivation assay; format: cell-based; parameters: expressed in transfected cells; settings: COS-7 cells transfected with IL-17 promoter luciferase reporter and RORγt plasmid, 20 h
T1 sequence (P51449 1-497 isoform P51449-2): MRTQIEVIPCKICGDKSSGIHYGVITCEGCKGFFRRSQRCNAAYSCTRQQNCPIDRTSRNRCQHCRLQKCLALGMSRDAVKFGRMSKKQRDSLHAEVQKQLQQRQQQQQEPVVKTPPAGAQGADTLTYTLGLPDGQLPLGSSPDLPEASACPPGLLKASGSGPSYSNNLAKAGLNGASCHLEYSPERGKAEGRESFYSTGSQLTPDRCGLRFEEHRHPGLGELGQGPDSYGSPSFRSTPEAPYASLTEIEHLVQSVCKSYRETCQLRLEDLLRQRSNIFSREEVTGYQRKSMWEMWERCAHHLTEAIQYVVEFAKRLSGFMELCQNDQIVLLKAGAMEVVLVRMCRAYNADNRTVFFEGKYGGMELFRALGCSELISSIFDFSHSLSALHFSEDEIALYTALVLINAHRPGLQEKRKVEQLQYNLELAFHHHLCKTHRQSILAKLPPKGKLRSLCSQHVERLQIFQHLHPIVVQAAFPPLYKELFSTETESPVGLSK
Description: It is well known that RORγ binds to a conserved non-coding sequence (CNS) enhancer element in the IL-17 promoter. Accordingly, we have used in this assay a luciferase reporter gene construct that contains the human IL-17 promoter fragment with RORγ-specific CNS enhancer element and a RORγt overexpressing plasmid, to indirectly assess the effect of compounds on RORγ activity. Inhibition of RORγ activity by test compounds will result in a decrease in luciferase activity in COS-7 cells transfected with the reporter construct.
Monkey Kidney COS-7 cell line are maintained in a standard culture medium Dulbecco's modified Eagle's minimal (DMEM) medium supplemented with 10% fetal calf serum, 1% sodium pyruvate, 1% essential amino acids and 1% antibiotics at 37° C. in a humidified atmosphere of 5% CO2 and 95% air. Culture medium was changed every 2 days.
The 4.3 Kb human IL-17 promoter containing the RORγ-specific CNS enhancer element was PCR amplified from human genomic DNA and cloned into a pGL3-TKLuc2Cp reporter plasmid. To overexpress RORγt, the full-length cDNA of human RORγt (identical to published sequence NM 001001523) was cloned without any restriction into pcdna3.1DV5-His-topo to generate the RORγt overexpression plasmid “RORγt_FL_h_pcDNA3.1DV5-His-TOPO_1”.
The luciferase reporter plasmid and the RORγt overexpression plasmid were transfected into COS-7 cell line using 4 μLJetPEITM/μg of DNA. Briefly, 150 ng of DNA (ration ½ between RORE-Tk Luc2Cp and cDNA RORγt or the empty vector for the negative control) was served to transfect adherent COS-7 cells in a […] culture flask, in complete medium (see cos-7 cell line culture). Cells were incubated for 24 hours in a humidified atmosphere of 5% CO2 and 95% air
Cells were then detached (using trypsin) and washed by centrifugation at 300 g for 10 minutes. Cell pellet was resuspended in serum free/phenol red free DMEM and seeded in 384 well plates at a density of 10000 cells/well and then incubated for 4 h at 37° C.
Compounds were dissolved in 100% DMSO to obtain 10 mM stock solutions. For each compound, test concentrations were diluted in serum free/phenol red free DMEM using the Genesis Freedom 200™ (TECAN) and added to the cells to obtain a 0.3% DMSO final concentration (in a final volume of 40 μL per well). T091317 was used as reference compound. Cells were incubated in presence of compounds for an additional 20 h at 37° C. in a humidified atmosphere of 5% CO2 and 95% air
The luciferase activity was then measured with 40 μL/well steady-Glo Luciferase assay system (Promega, Madison, Wis.) and after incubation at room temperature for 30 minutes. The luminescence was estimated using the Ultra384 reader (TECAN). Data were collected and analyzed using GraphPad Prism software (GraphPad Software V5.02, San Diego Calif. USA). IC50 in μM and Emax in % were reported for each compound.

human RORγt [2] = biological target: T1, human RORγt; assay: IL-17 secretion from EL4 murine lymphoma overexpressing human RORγt; format: cell-based; parameters: expressed in transfected cells; host or cells: EL-4 murine lymphoma; settings: IL-17 secretion inhibition, PMA and ionomycin stimulation, 24 h
Method in brief: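 EL4 murine lymphoma cells electroporated with hRORγt plasmid, seeded 150000 cells/well, pretreated with compound, then stimulated with PMA (10 ng/mL) and ionomycin (1 μM final) with compound for a further 24 h at 37° C. IL-17 in supernatant measured by HTRF or ELISA.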

[3] = biological target: T2, RORγt ligand-binding domain (RORγt-LBD) (Homo sapiens, UniProt P51449); assay: Time-resolved FRET (TR-FRET) RORγt coactivator assay; format: biochemical; settings: GST-RORγ-LBD, biotinylated RIP140 peptide, coactivator displacement
T2 construct: 20 nM recombinantly expressed RORγ-LBD fused to GST
T2 sequence (P51449 269-508 limits assumed): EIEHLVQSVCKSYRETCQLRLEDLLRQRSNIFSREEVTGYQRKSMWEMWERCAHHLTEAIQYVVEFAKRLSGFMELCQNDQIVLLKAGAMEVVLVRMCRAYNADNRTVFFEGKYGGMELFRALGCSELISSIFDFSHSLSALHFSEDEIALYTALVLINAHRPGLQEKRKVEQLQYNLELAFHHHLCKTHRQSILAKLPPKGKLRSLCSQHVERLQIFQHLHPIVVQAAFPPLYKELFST

SMILES | IC50 (human RORγt [1]) | IC50 (human RORγt [2]) | IC50 [3]
Cc1ccc(C(NC(=O)Cc2ccc3[nH]cc(CCC(=O)O)c3c2)c2ccccc2)c(N2CCCC2)n1 (stereo not shown) [Cpd. 15, 3-{5-[({[6-methyl-2-(pyrrolidin-1-yl)pyridin-3-yl](phenyl)methyl}carbamoyl)methyl]-1H-indol-3-yl}propanoic acid] | 1 to 10 µM | 10 to 30 µM | < 1 µM
Cc1ccc(C(NC(=O)Cc2ccc3[nH]cc(CCC(=O)O)c3c2)c2ccccc2)c(F)c1 (stereo not shown) [Cpd. 17, 3-[5-({[(2-fluoro-4-methylphenyl)(phenyl)methyl]carbamoyl}methyl)-1H-indol-3-yl]propanoic acid] | > 10 µM |  | 1 to 10 µM
Cc1ccc(F)c(C(NC(=O)Cc2ccc3[nH]cc(CCC(=O)O)c3c2)c2ccccc2)c1 (stereo not shown) [Cpd. 19, 3-[5-({[(2-fluoro-5-methylphenyl)(phenyl)methyl]carbamoyl}methyl)-1H-indol-3-yl]propanoic acid] | > 10 µM |  | 1 to 10 µM
Cc1ccc(C(NC(=O)Cc2ccc3[nH]cc(CCC(=O)O)c3c2)c2ccccn2)c(C)c1 (stereo not shown) [Cpd. 21, 3-[5-({[(2,4-dimethylphenyl)(pyridin-2-yl)methyl]carbamoyl}methyl)-1H-indol-3-yl]propanoic acid] | > 10 µM |  | < 1 µM
O=C(O)Cc1c[nH]c2ccc(CC(=O)NC(c3ccccc3)c3ccccc3N3CCCCC3)cc12 (stereo not shown) [Cpd. 39, 2-{5-[({phenyl[2-(piperidin-1-yl)phenyl]methyl}carbamoyl)methyl]-1H-indol-3-yl}acetic acid] | 1 to 10 µM |  | 1 to 10 µM
Cc1ccc(C(NC(=O)Cc2ccc3[nH]cc(CCC(=O)O)c3c2)c2cccnc2)c(C)c1 (stereo not shown) [compound 27, 3-[5-({[(2,4-dimethylphenyl)(pyridin-3-yl)methyl]carbamoyl}methyl)-1H-indol-3-yl]propanoic acid] | > 10 µM |  | 1 to 10 µM
Cc1ccc(C(NC(=O)Cc2ccc3[nH]cc(CCC(=O)O)c3c2)c2ccccc2)c2ncccc12 (stereo not shown) [compound 31, 3-[5-({[(5-methylquinolin-8-yl)(phenyl)methyl]carbamoyl}methyl)-1H-indol-3-yl]propanoic acid] | > 10 µM |  | < 1 µM
Cc1cc(Cl)ccc1C(NC(=O)Cc1ccc2[nH]cc(CCC(=O)O)c2c1)c1ccccc1 (stereo not shown) [compound 33, 3-[5-({[(4-chloro-2-methylphenyl)(phenyl)methyl]carbamoyl}methyl)-1H-indol-3-yl]propanoic acid] | 1 to 10 µM |  | < 1 µM
O=C(O)CCc1c[nH]c2ccc(CC(=O)NC(c3ccccc3)c3ccccc3N3CCCCCC3)cc12 (stereo not shown) [compound 35, 3-{5-[({[2-(azepan-1-yl)phenyl](phenyl)methyl}carbamoyl)methyl]-1H-indol-3-yl}propanoic acid] | < 1 µM | 1 to 10 µM | < 1 µM
Cc1ccc(C(NC(=O)Cc2ccc3[nH]cc(CCC(=O)O)c3c2)c2ccccc2)c2ccccc12 (stereo not shown) [compound 37, 3-[5-({[(4-methylnaphthalen-1-yl)(phenyl)methyl]carbamoyl}methyl)-1H-indol-3-yl]propanoic acid] | 1 to 10 µM | 10 to 30 µM | < 1 µM
Cc1ccc(C(NC(=O)Cc2ccc3[nH]cc(CCC(=O)O)c3c2)c2ccc(C)o2)c(N2CCCCC2)c1 (stereo not shown) [compound 268, 3-{5-[({[4-methyl-2-(piperidin-1-yl)phenyl](5-methylfuran-2-yl)methyl}carbamoyl)methyl]-1H-indol-3-yl}propanoic acid] | < 1 µM |  | < 1 µM
